# From PubChem BioAssay (NCI)
#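 Briefly, cells in 96-well plates were exposed to five compound concentrations for 48 h, and endpoints were estimated by linear interpolation. Here, GI50 denotes the concentration required for 50% inhibition of growth. TGI marks complete inhibition of growth.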
# Key:
# Experiment in all cases: NCI anticancer screen, dose series, 48 h
# SNB-19 CNS = tested on: SNB-19 CNS
# TK-10 renal = tested on: TK-10 renal
# HOP-62 NSCLC = tested on: HOP-62 NSCLC
# HT29 colon = tested on: HT29 colon
# T-47D breast = tested on: T-47D breast
# EKVX NSCLC = tested on: EKVX NSCLC
# SN12C renal = tested on: SN12C renal
# NCI-H226 lung = tested on: NCI-H226 lung
# SK-MEL-2 melanoma = tested on: SK-MEL-2 melanoma
# CCRF-CEM leukemia = tested on: CCRF-CEM leukemia
# HL-60(TB) leukemia = tested on: HL-60(TB) leukemia
# U251 CNS = tested on: U251 CNS
# NCI-H23 lung = tested on: NCI-H23 lung
# SK-MEL-28 melanoma = tested on: SK-MEL-28 melanoma
# MALME-3M melanoma = tested on: MALME-3M melanoma
# IGROV1 ovarian = tested on: IGROV1 ovarian
# RPMI-8226 leukemia = tested on: RPMI-8226 leukemia
# PC-3 prostate = tested on: PC-3 prostate
# HOP-92 NSCLC = tested on: HOP-92 NSCLC
# UO-31 renal = tested on: UO-31 renal
# UACC-62 melanoma = tested on: UACC-62 melanoma
# MDA-MB-435 = tested on: MDA-MB-435
# MDA-MB-468 breast = tested on: MDA-MB-468 breast
# NCI/ADR-RES ovarian = tested on: NCI/ADR-RES ovarian
# MOLT-4 leukemia = tested on: MOLT-4 leukemia
# HS 578T breast = tested on: HS 578T breast
# RXF 393 renal = tested on: RXF 393 renal
# SF-539 CNS = tested on: SF-539 CNS
# NCI-H460 lung = tested on: NCI-H460 lung
# COLO 205 colon = tested on: COLO 205 colon
# SF-268 CNS = tested on: SF-268 CNS
# HCC-2998 colon = tested on: HCC-2998 colon
# UACC-257 melanoma = tested on: UACC-257 melanoma
# OVCAR-5 ovarian = tested on: OVCAR-5 ovarian
# ACHN renal = tested on: ACHN renal
# MCF7 breast = tested on: MCF7 breast
# 786-0 renal = tested on: 786-0 renal
# OVCAR-8 ovarian = tested on: OVCAR-8 ovarian
# NCI-H522 lung = tested on: NCI-H522 lung
# BT-549 breast = tested on: BT-549 breast
# SR leukemia = tested on: SR leukemia
# CAKI-1 renal = tested on: CAKI-1 renal
# KM12 colon = tested on: KM12 colon
# A498 renal = tested on: A498 renal
# OVCAR-3 ovarian = tested on: OVCAR-3 ovarian
# K-562 leukemia = tested on: K-562 leukemia
# SK-OV-3 ovarian = tested on: SK-OV-3 ovarian
# SF-295 CNS = tested on: SF-295 CNS
# HCT-15 colon = tested on: HCT-15 colon
# MDA-MB-231 breast = tested on: MDA-MB-231 breast
# SK-MEL-5 melanoma = tested on: SK-MEL-5 melanoma
# SNB-75 CNS = tested on: SNB-75 CNS
# DU-145 prostate = tested on: DU-145 prostate
# M14 melanoma = tested on: M14 melanoma
# HCT-116 colon = tested on: HCT-116 colon
# LOX IMVI melanoma = tested on: LOX IMVI melanoma
# A549 NSCLC = tested on: A549 NSCLC
# SW-620 colon = tested on: SW-620 colon
# OVCAR-4 ovarian = tested on: OVCAR-4 ovarian
smiles,measurement,setting,value
Cc1ccc(C(=O)NCCCNc2nc(Nc3ccc(N4CCN(C)CC4)cc3)nc3ccsc23)cc1,GI50,SNB-19 CNS,10.2 µM
same,TGI,SNB-19 CNS,22.2 µM
same,GI50,TK-10 renal,3.14 µM
same,TGI,TK-10 renal,9.36 µM
same,GI50,HOP-62 NSCLC,10.3 µM
same,TGI,HOP-62 NSCLC,23.4 µM
same,GI50,HT29 colon,2.06 µM
same,TGI,HT29 colon,5.96 µM
same,GI50,T-47D breast,2.25 µM
same,TGI,T-47D breast,7.62 µM
same,GI50,EKVX NSCLC,10.2 µM
same,TGI,EKVX NSCLC,22.3 µM
same,GI50,SN12C renal,7.19 µM
same,TGI,SN12C renal,20.7 µM
same,GI50,NCI-H226 lung,4.79 µM
same,TGI,NCI-H226 lung,19.4 µM
same,GI50,SK-MEL-2 melanoma,4.33 µM
same,TGI,SK-MEL-2 melanoma,16.5 µM
same,GI50,CCRF-CEM leukemia,1.87 µM
same,TGI,CCRF-CEM leukemia,> 100 µM
same,GI50,HL-60(TB) leukemia,1.99 µM
same,TGI,HL-60(TB) leukemia,4.52 µM
same,GI50,U251 CNS,2.78 µM
same,TGI,U251 CNS,11.1 µM
same,GI50,NCI-H23 lung,5.59 µM
same,TGI,NCI-H23 lung,20.5 µM
same,GI50,SK-MEL-28 melanoma,2.18 µM
same,TGI,SK-MEL-28 melanoma,4.64 µM
same,GI50,MALME-3M melanoma,1.79 µM
same,TGI,MALME-3M melanoma,3.27 µM
same,GI50,IGROV1 ovarian,4.4 µM
same,TGI,IGROV1 ovarian,17 µM
same,GI50,RPMI-8226 leukemia,2.02 µM
same,TGI,RPMI-8226 leukemia,6.4 µM
same,GI50,PC-3 prostate,3.33 µM
same,TGI,PC-3 prostate,14.8 µM
same,GI50,HOP-92 NSCLC,2.23 µM
same,TGI,HOP-92 NSCLC,10.4 µM
same,GI50,UO-31 renal,3.57 µM
same,TGI,UO-31 renal,15.3 µM
same,GI50,UACC-62 melanoma,1.98 µM
same,TGI,UACC-62 melanoma,4.21 µM
same,GI50,MDA-MB-435,4.31 µM
same,TGI,MDA-MB-435,15.5 µM
same,GI50,MDA-MB-468 breast,1.3 µM
same,TGI,MDA-MB-468 breast,4.45 µM
same,GI50,NCI/ADR-RES ovarian,3.11 µM
same,TGI,NCI/ADR-RES ovarian,11.4 µM
same,GI50,MOLT-4 leukemia,1.8 µM
same,TGI,MOLT-4 leukemia,4.89 µM
same,GI50,HS 578T breast,2.55 µM
same,TGI,HS 578T breast,18.3 µM
same,GI50,RXF 393 renal,1.47 µM
same,TGI,RXF 393 renal,3.71 µM
same,GI50,SF-539 CNS,1.73 µM
same,TGI,SF-539 CNS,3.42 µM
same,GI50,NCI-H460 lung,3.75 µM
same,TGI,NCI-H460 lung,14 µM
same,GI50,COLO 205 colon,2.35 µM
same,TGI,COLO 205 colon,5.43 µM
same,GI50,SF-268 CNS,2.46 µM
same,TGI,SF-268 CNS,17.9 µM
same,GI50,HCC-2998 colon,3.44 µM
same,TGI,HCC-2998 colon,9.5 µM
same,GI50,UACC-257 melanoma,2.2 µM
same,TGI,UACC-257 melanoma,6.2 µM
same,GI50,OVCAR-5 ovarian,11 µM
same,TGI,OVCAR-5 ovarian,25.5 µM
same,GI50,ACHN renal,3.99 µM
same,TGI,ACHN renal,15 µM
same,GI50,MCF7 breast,3.22 µM
same,TGI,MCF7 breast,11.4 µM
same,GI50,786-0 renal,2.02 µM
same,TGI,786-0 renal,6.3 µM
same,GI50,OVCAR-8 ovarian,3 µM
same,TGI,OVCAR-8 ovarian,11.7 µM
same,GI50,NCI-H522 lung,2.21 µM
same,TGI,NCI-H522 lung,5.86 µM
same,GI50,BT-549 breast,2.46 µM
same,TGI,BT-549 breast,7.15 µM
same,GI50,SR leukemia,1.69 µM
same,TGI,SR leukemia,4.71 µM
same,GI50,CAKI-1 renal,3.3 µM
same,TGI,CAKI-1 renal,14.1 µM
same,GI50,KM12 colon,4.02 µM
same,TGI,KM12 colon,15.8 µM
same,GI50,A498 renal,12.3 µM
same,TGI,A498 renal,24.9 µM
same,GI50,OVCAR-3 ovarian,3.08 µM
same,TGI,OVCAR-3 ovarian,10.9 µM
same,GI50,K-562 leukemia,1.74 µM
same,TGI,K-562 leukemia,18.4 µM
same,GI50,SK-OV-3 ovarian,10.8 µM
same,TGI,SK-OV-3 ovarian,24 µM
same,GI50,SF-295 CNS,2.68 µM
same,TGI,SF-295 CNS,7.7 µM
same,GI50,HCT-15 colon,2.54 µM
same,TGI,HCT-15 colon,11.2 µM
same,GI50,MDA-MB-231 breast,3.17 µM
same,TGI,MDA-MB-231 breast,10.7 µM
same,GI50,SK-MEL-5 melanoma,1.84 µM
same,TGI,SK-MEL-5 melanoma,4.08 µM
same,GI50,SNB-75 CNS,1.91 µM
same,TGI,SNB-75 CNS,12.1 µM
same,GI50,DU-145 prostate,5.89 µM
same,TGI,DU-145 prostate,19.2 µM
same,GI50,M14 melanoma,2.14 µM
same,TGI,M14 melanoma,4.77 µM
same,GI50,HCT-116 colon,2.62 µM
same,TGI,HCT-116 colon,10.2 µM
same,GI50,LOX IMVI melanoma,1.71 µM
same,TGI,LOX IMVI melanoma,3.86 µM
same,GI50,A549 NSCLC,3.99 µM
same,TGI,A549 NSCLC,16.3 µM
same,GI50,SW-620 colon,2.63 µM
same,TGI,SW-620 colon,8 µM
same,GI50,OVCAR-4 ovarian,3.45 µM
same,TGI,OVCAR-4 ovarian,15 µM
